One block for each compound: values may come before it. Active and inactive are the calls of the source. The calls are words filed in the database; no cut-off is given here.
Assays:
[1] = species: Rattus norvegicus; experiment: (§1) In vitro inhibition of sorbitol accumulation was measured in rat sciatic nerves incubated in the presence of 50 mM glucose at 10e-6 M concentration; format: functional, Sciatic nerve
[2] = species: Rattus norvegicus; experiment: (§2) In vitro inhibition of sorbitol accumulation was measured in rat sciatic nerves incubated in the presence of 50 mM glucose at 10e-5 M concentration; format: functional, Sciatic nerve
[3] = tested on: Rattus norvegicus; experiment: In vivo inhibition of galactitol accumulation in sciatic nerves of rat at 16 mg/kg/day; format: functional; details: Sciatic nerve
[4] = tested on: Rattus norvegicus; experiment: In vivo inhibition of galactitol accumulation in diaphragm of rat at 20 mg/kg/day; format: functional
[5] = tested on: Rattus norvegicus; experiment: In vivo inhibition of galactitol accumulation in sciatic nerves of rat at 20 mg/kg/day; format: functional; details: Sciatic nerve
[6] = molecular target: Aldo-keto reductase family 1 member B1 (Bos taurus) (UniProt P16116); experiment: In vitro % decrease of aldose reductase measured in isolated partially purified bovine lens preparations at 10e-7 M concentration
[7] = tested on: Rattus norvegicus; experiment: In vivo inhibition of galactitol accumulation in diaphragm of rat at 27 mg/kg/day; format: functional
[8] = tested on: Rattus norvegicus; experiment: In vivo inhibition of galactitol accumulation in diaphragm of rat at 14 mg/kg/day; format: functional
[9] = tested on: Rattus norvegicus; experiment: In vivo inhibition of galactitol accumulation in sciatic nerves of rat at 14 mg/kg/day; format: functional; details: Sciatic nerve
[10] = molecular target: Aldo-keto reductase family 1 member B1 (Bos taurus) (UniProt P16116); experiment: In vitro % decrease of aldose reductase was measured in isolated partially purified bovine lens preparations at 10e-7 M concentration; Not active
[11] = tested on: Rattus norvegicus; experiment: In vivo inhibition of galactitol accumulation in sciatic nerves of rat at 27 mg/kg/day; format: functional; details: Sciatic nerve
[12] = tested on: Rattus norvegicus; experiment: In vivo inhibition of galactitol accumulation in diaphragm of rat at 144 mg/kg/day; format: functional
[13] = tested on: Rattus norvegicus; experiment: In vivo inhibition of galactitol accumulation in sciatic nerves of rat at 144 mg/kg/day; format: functional; details: Sciatic nerve
[14] = species: Rattus norvegicus; experiment: as §2; format: functional; details: Sciatic nerve
[15] = tested on: Rattus norvegicus; experiment: Effective dose of aldose reductase was evaluated by measuring galactitol accumulation in sciatic nerves of rat at 4 mg/kg/day; format: functional; details: Sciatic nerve
[16] = tested on: Rattus norvegicus; experiment: In vivo inhibition of galactitol accumulation in sciatic nerves of rat at 4 mg/kg/day; format: functional; details: Sciatic nerve
[17] = tested on: Rattus norvegicus; experiment: In vivo inhibition of galactitol accumulation in diaphragm of rat at 4 mg/kg/day; format: functional
[18] = species: Rattus norvegicus; experiment: as §1; format: functional; details: Sciatic nerve
[19] = tested on: Rattus norvegicus; experiment: In vivo inhibition of galactitol accumulation in sciatic nerves of rat at 112 mg/kg/day; Not significant; format: functional, organism-based; details: Sciatic nerve
[20] = tested on: Rattus norvegicus; experiment: % reduction of aldose reductase inhibition was evaluated by measuring galactitol accumulation in diaphragm of rat at 112 mg/kg/day; Not significant; format: functional, organism-based
[21] = tested on: Rattus norvegicus; experiment: In vivo inhibition of galactitol accumulation in diaphragm of rat at 19 mg/kg/day; format: functional
[22] = tested on: Rattus norvegicus; experiment: In vivo inhibition of galactitol accumulation in sciatic nerves of rat at 19 mg/kg/day; format: functional; details: Sciatic nerve
[23] = tested on: Rattus norvegicus; experiment: In vivo inhibition of galactitol accumulation in sciatic nerves of rat at 28 mg/kg/day; format: functional; details: Sciatic nerve
[24] = tested on: Rattus norvegicus; experiment: In vivo inhibition of galactitol accumulation in diaphragm of rat at 28 mg/kg/day; format: functional
[25] = species: Rattus norvegicus; experiment: Inhibition of aldose reductase activity was measured by measuring sorbitor accumulation in the sciatic nerves of STZ diabetic rat.; format: functional; details: Sciatic nerve
[26] = species: Rattus norvegicus; experiment: Inhibition of galactitol accumulation in rat lens incubated in presence of 50 mM glucose; format: functional, organism-based; details: Lens of camera-type eye
[27] = species: Rattus norvegicus; experiment: Inhibition of aldose reductase activity was measured by measuring […] in the RBC of galactose fed rat.; format: functional
[28] = tested on: Rattus norvegicus; experiment: In vivo inhibition of galactitol accumulation in sciatic nerves of rat at 10 mg/kg/day; format: functional; details: Sciatic nerve
[29] = species: Rattus norvegicus; experiment: Inhibition of galactitol accumulation in rat RBC incubated in presence of 50 mM glucose; format: functional, organism-based
[30] = tested on: Rattus norvegicus; experiment: In vivo inhibition of galactitol accumulation in sciatic nerves of rat at 5 mg/kg/day; format: functional; details: Sciatic nerve
[31] = molecular target: Aldo-keto reductase family 1 member B1 (Bos taurus, UniProt P16116); experiment: Inhibition of aldose reductase activity was measured on partially purified bovine lens preparations incubated in presence of 50 mM glucose.
[32] = tested on: Rattus norvegicus; experiment: In vivo inhibition of galactitol accumulation in diaphragm of rat at 10 mg/kg/day; format: functional
[33] = species: Rattus norvegicus; experiment: Inhibition of galactitol accumulation in sciatic nerves of rat incubated in presence of 50 mM glucose.; format: functional, organism-based; details: Sciatic nerve
[34] = tested on: Rattus norvegicus; experiment: In vivo inhibition of galactitol accumulation in diaphragm of rat at 5 mg/kg/day; format: functional
[35] = species: Rattus norvegicus; experiment: Inhibition of aldose reductase activity was measured by measuring […] in the sciatic nerves of galactose fed rat.; format: functional; details: Sciatic nerve
[36] = tested on: Rattus norvegicus; experiment: In vivo inhibition of galactitol accumulation in sciatic nerves of rat at 53 mg/kg/day; Not significant; format: functional, organism-based; details: Sciatic nerve
[37] = tested on: Rattus norvegicus; experiment: In vivo inhibition of galactitol accumulation in diaphragm of rat at 53 mg/kg/day; Not significant; format: functional, organism-based
[38] = tested on: Rattus norvegicus; experiment: In vivo inhibition of galactitol accumulation in sciatic nerves of rat at 5 mg/kg/day; Not significant; format: functional, organism-based; details: Sciatic nerve
[39] = tested on: Rattus norvegicus; experiment: In vivo inhibition of galactitol accumulation in diaphragm of rat at 105 mg/kg/day; format: functional
[40] = tested on: Rattus norvegicus; experiment: In vivo inhibition of galactitol accumulation in sciatic nerves of rat at 105 mg/kg/day; Not significant; format: functional, organism-based; details: Sciatic nerve

inhibition [6]: 20%
Compound: COc1c(C)cc2c(C(=O)N(C)CC(=O)O)cccc2c1Br
inhibition [19]: inactive
inhibition [20]: inactive
inhibition in vivo at 19 mg/kg/day [21]: 63%
inhibition in vivo at 19 mg/kg/day [22]: 77%

inhibition [6]: 62%
Compound: COc1ccc2c(C(F)(F)F)c(OC)ccc2c1C(=O)N(C)CC(=O)O
Inhibition [1]: 33%
Inhibition [2]: 48%
inhibition [36]: inactive
inhibition [37]: inactive

inhibition [6]: 89%
Compound: O=C(O)Cc1nn(Cc2nc3cc(C(F)(F)F)ccc3s2)c(=O)c2ccccc12 [ZOPOLRESTAT]
inhibition in vivo at 10 mg/kg/day [28]: 70%
inhibition in vivo at 10 mg/kg/day [32]: 80%
inhibition in vivo at 5 mg/kg/day [34]: 88%
inhibition [38]: inactive

More lines, now with the values behind:

Compound: COc1ccc2c(C(=O)N(C)CC(=O)O)c(F)ccc2c1C(F)(F)F
Inhibition [1]: 41%
Inhibition [2]: 66%
inhibition in vivo at 16 mg/kg/day [3]: 45%
inhibition in vivo at 20 mg/kg/day [4]: 72%
inhibition in vivo at 20 mg/kg/day [5]: 62%
inhibition [6]: 80%

Compound: COc1ccc2c(C(=O)N(C)CC(N)=O)ccc(F)c2c1C(F)(F)F
inhibition in vivo at 27 mg/kg/day [7]: 31%
inhibition in vivo at 14 mg/kg/day [8]: 74%
inhibition in vivo at 14 mg/kg/day [9]: 72%
inhibition [10]: inactive
inhibition in vivo at 27 mg/kg/day [11]: 56%

Compound: COc1ccc2c(C(=S)N(C)CC(=O)O)cc(Cc3ccccc3)cc2c1Br
inhibition in vivo at 144 mg/kg/day [12]: 84%
Inhibition [1]: 48%
Inhibition [2]: 78%
inhibition in vivo at 144 mg/kg/day [13]: 46%
inhibition [6]: 84%

Compound: O=C1NC(=O)[C@@]2(CCOc3ccc(F)cc32)N1 [SORBINIL]
IC50 [14]: 2.2 µM
Inhibition [1]: 27%
Inhibition [2]: 96%
ED50 [15]: 4.2 mg/kg
inhibition in vivo at 4 mg/kg/day [16]: 55%
inhibition in vivo at 4 mg/kg/day [17]: 69%
IC50 [18]: 2.2 µM

Compound: CCOc1ccc2c(C(F)(F)F)c(OC)ccc2c1C(=S)N(C)CC(=O)O
inhibition in vivo at 28 mg/kg/day [23]: 46%
inhibition in vivo at 28 mg/kg/day [24]: 85%
inhibition [6]: 87%

Compound: COC(=O)N(CC(=O)O)C(=O)c1c(F)ccc2c(C(F)(F)F)c(OC)ccc12
ED50 [25]: 4 mg/kg
Inhibition [1]: 36%
Inhibition [2]: 61%
IC50 [26]: 0.34 µM
ED50 [27]: 3.5 mg/kg
inhibition in vivo at 10 mg/kg/day [28]: 61%
IC50 [29]: 0.019 µM
inhibition in vivo at 5 mg/kg/day [30]: 50%
IC50 [31]: 0.025 µM
inhibition in vivo at 10 mg/kg/day [32]: 62%
IC50 [33]: 2.8 µM
inhibition in vivo at 5 mg/kg/day [34]: 52%
ED50 [35]: 4.8 mg/kg
inhibition [6]: 86%

Compound: COc1c(C)cc2c(C(=S)N(C)CC(=O)O)cccc2c1Br
inhibition in vivo at 105 mg/kg/day [39]: 34%
inhibition in vivo at 10 mg/kg/day [28]: 54%
inhibition [40]: inactive
inhibition in vivo at 10 mg/kg/day [32]: 87%
inhibition [6]: 8%

From ChEMBL document CHEMBL1125860 (J Med Chem, 1991)
